These are literature values, as cited in patent US20210321634A1, “Lactobacillus Acidipiscis, Fermented Soymilk, and Preparation Method and Use Thereof” (Hebei Agricultural University, priority 2020, published 2021).

The conditions of data set [1]: compared with daidzein and genistein.
The conditions of data set [2]: compared with daidzein.

`O=C1c2ccc(O)cc2OCC1c1ccc(O)cc1` (stereo not drawn) [DHD, dihydrodaidzein]: the “DPPH free radical scavenging activity” value in data set [1] is reported as “significantly higher”. In addition, the cardiovascular protective activity result in data set [2] is on record as “significantly higher”.

Regarding `O=C1c2c(O)cc(O)cc2OCC1c1ccc(O)cc1` (stereo not drawn) [DHG, dihydrogenistein], in data set [1], the “DPPH free radical scavenging activity” value is on record as “significantly higher”.
